Assay results taken from patent US11439639B2, “Pyrazine-containing compound” (CalciMedica, Inc., priority 2015, dated 2022).

How the values were obtained:
Mouse Acinar cells = experiment: TLCS-induced amylase release in mouse acinar cells; format: cell-based; conditions: TLCS-treated mouse acinar cells, compared with EGTA
Method: Amylase release from PACs has an ER calcium-dependent and a CRAC/cytosolic calcium-dependent component. The calcium dependent component is blocked by introduction of the divalent cation chelating agent EGTA. Mouse Acinar cells were treated with TLCS and either vehicle, EGTA, or a CRAC inhibitor such as Compound I, GSK-7975A or Compound II and monitored for Amylase release. It is observed that CRAC inhibitors mimicked EGTA in their effect on Amylase release.

Mouse PACs [1] = experiment: Rate of store-operated Calcium entry in mouse PACs, dose dependence; format: cell-based; design: block of reuptake: dose or concentration left out as unconfirmed; conditions: for activity at 0.7 µM: Mus musculus, 700 nM of inhibitor, read-out: rate of store-operated Calcium entry, % of control levels
Method: Mouse PACs were treated with CRAC inhibitors Compound I (FIG. 5A) or GSK-7975A (FIG. 5B) and monitored for their rate of Calcium uptake. […] Compound I blocks 100% of reuptake […].

Mouse PACs [2] = experiment: CCK-induced Ca2+ entry in mouse PACs; format: cell-based; conditions: CCK 10 nM, then 1.8 mM Calcium; pretreatment with inhibitor
Method: Mouse PACs were monitored for their Calcium uptake upon treatment with CCK at 10 nM. Cells were treated with CCK, and then provided with 1.8 mM Calcium and Calcium reuptake was monitored. […] Compound I pretreatment reduced Calcium re-uptake to near 0% of the control. GSK-7975A reduced calcium reuptake to about 30% of the control.

[3] = system: Mouse Pancreatic Acinar Cells (PACs); experiment: TLCS-induced necrosis in mouse pancreatic acinar cells (propidium iodide uptake); format: cell-based
Method: (§1) Mouse Pancreatic Acinar Cells (PACs) were extracted and incubated with either a carrier (control) or with natural bile acid TLCS (taurolithocholic acid 3-sulfate) in the absence or presence of GSK-7975A. Cells were contacted with propidium iodide to assay for cell necrosis. TLCS treatment to individual cells in vitro mimics the effect of a gall stone or other blockage in pancreatic secretion in vivo.
Mouse PACs were treated with either DMSO, DMSO plus 500 μM TLCS, or DMSO plus 500 μM TLCS plus 1 μM of the CRAC inhibitor Compound I. Cell necrosis was measured as % PI uptake. The CRAC inhibitor Compound I inhibits TLCS-induced necrosis in mouse PACs.

Orai2/STIM1 channels = Orai2/STIM1 channels (Homo sapiens, UniProt Q96SN7); experiment: CRAC channel inhibition, Orai2/STIM1; format: cell-based
Method: (§2) Compound I and GSK-7975A were assayed for their inhibitory effect on CRAC channels. Channels comprising Orai1/STIM1 and Orai2/STIM1 were assayed.

[4] = system: Mouse acute pancreatitis models; experiment: Mouse acute pancreatitis models (Caerulein, TLCS, FAEE), pancreas histopathology; format: in vivo; conditions: TLCS or FAEE model, doses giving tissue levels 10× or 40× the IC50, more pronounced at 40×
Description: Mouse acute pancreatitis models were used to evaluate the effect of a CRAC inhibitor on pancreas histopathological progression. Caerulein is used to hyper-stimulate CCK receptors in the normal Calcium signaling pathway in the mouse pancreas. TLCS is used to induce acute pancreatitis through simulation of an excess of bile acid, as would be experienced in a gallstone induced acute pancreatitis. Fatty acid ethyl esters (FAEE) are used to simulate alcohol-induced acute pancreatitis. Mice were treated with the acute pancreatitis agent (Caerulin, FIG. 2A, TLCS, FIG. 2B or FAEE, FIG. 2C) alone or with the CRAC inhibitor GSK-7975A at either 10× or 40× the IC50 of the CRAC inhibitor.

Orai1/STIM1 channels = Orai1/STIM1 channels (Homo sapiens, UniProt Q96D31); experiment: CRAC channel inhibition, Orai1/STIM1; format: cell-based; conditions: for IC50: Orai1/STIM1 channels
Method: as §2

Human PACs = experiment: TLCS-induced necrosis in human pancreatic acinar cells (propidium iodide); format: cell-based; conditions: TLCS plus 10 μM GSK-7975A, TLCS alone about 45%, no TLCS about 23%
Method: as §1, with “Human PACs” for “Mouse Pancreatic Acinar Cells (PACs)”, “TLCS” for “TLCS (taurolithocholic acid 3-sulfate)”

[5] = system: caerulein-induced acute pancreatitis; experiment: Serum amylase and serum lipase in mouse caerulein model of acute pancreatitis; format: in vivo; conditions: doses up to 20 mg/kg
Method: Mice were either untreated (Normal), treated with CCK only (vehicle), or treated with CCK in combination with CsA or a CRAC inhibitor at the indicated dose. Serum amylase activity (FIG. 9A) and Serum Lipase activity (FIG. 9B) (IU/L) were measured.

[6] = Compound levels in the pancreas after i.p. injection; format: in vivo, mouse; conditions: as a function of dose
Candid-1 JUNV = format: cell-based, Junin virus; conditions: VeroE6 cells; 1, 10, 25, 50 μM Compound I
Th17 cells = experiment: Cytokine production by Th1, Th2 and Th17 cells; format: cell-based, murine; conditions: compared with IFN-γ and IL-4 production by Th1 and Th2 cells
[7] = system: caerulein-induced pathology in the mouse pancreas; experiment: Mouse caerulein model of acute pancreatitis, prophylactic i.p. dosing, pancreas pathology; format: in vivo; conditions: C57B6 mice
Method: Mice were treated with a CRAC inhibitor or a vehicle prophylactically, and then challenged with CCK to trigger acute pancreatitis.

[8] = system: caerulein-induced pathology in the pancreas; experiment: Therapeutic/prophylactic mouse caerulein model, histopathology scores; format: in vivo
Method: Seven hourly i.p. injections of caerulein were given to induce pancreatitis, with animals sacrificed 8 hr after the 1st injection. Compound I was administered i.p. either 30 min before the 1st caerulein injection (prophylactic), or after the 3rd injection (therapeutic). CsA was administered p.o. on the same schedule as Compound I. The results are depicted in FIG. 10. Histopathology scores were measured in light of observation of Acinar cell degeneration, coagulation necrosis, and inflammation and edema measurements. Compound I produced a significant 35% reduction in caerulein-induced pathology in the pancreas when administered after the 3rd caerulein injection, consistent with efficacy in a therapeutic mode.

Mouse PACs [9] = experiment: CPA-induced store-operated Ca2+ entry (calcium reuptake) in mouse PACs; format: cell-based; conditions: CPA-treated mouse PACs, excess Calcium given 15 minutes after release
Method: Mouse PACs were isolated and assayed for the effect of CRAC inhibitors on calcium re-uptake into the ER. Cells were treated with cyclopiazonic acid (CPA) alone (FIG. 4A) or in combination with the CRAC inhibitor Compound I (FIG. 4B) to activate CRAC channels to release Ca^2+. At 15 minutes following Calcium release, cells were provided with an excess of Calcium and monitored for Calcium uptake into the ER.

Mouse PACs [10] = experiment: TLCS-induced Ca2+ entry in mouse PACs (cytosolic calcium, F345/F380); format: cell-based; conditions: 500 μM TLCS; Compound I at 1 or 3 μM
Method: Mouse PACs were treated with 500 μM TLCS and either 0, 1μM or 3 μM of the CRAC inhibitor Compound I. Cytosolic Calcium levels (measured as F345/ F380 ratios) were measured for each treatment. TLCS releases Ca^2+ from intracellular stores (not shown), initiating SOCE. […] The results are depicted in FIG. 11.

[11] = system: T cells in bulk human PBMCs; experiment: Cytokine release from anti-CD3/anti-CD28 stimulated human PBMCs (Luminex); format: cell-based; conditions: plate-bound anti-CD3/anti-CD28, 10% serum, 48 hrs
Method: Compound I was tested for its inhibitory effect on a number of cytokines. Cytokines INF-gamma, IL-4, and IL-4 receptors of which are expressed on Acinar cells, cytokines IL-lbeta, IL-6, IL-10 and TNF-alpha, expressed in Acinar cells, and IL-2 and IL-7, cytokines important in T-cell function, were tested for an inhibitory effect of the CRAC inhibitor Compound I. T cells in bulk human PBMCs were stimulated with plate-bound anti-CD3/anti-CD28 in buffer +10% serum for 48 hrs. Released cytokines were measured by Luminex at Millipore.

murine T cells = experiment: Store-operated Ca2+ entry in murine T cells under Th1-, Th2-, Th17-polarizing conditions; format: cell-based; conditions: 1 μM Compound I, Th17 versus naive
Method: Naive and stimulated murine T cells cultured under Th1-, Th2-, and Th17-polarizing conditions are treated with either DMSO, DMSO plus 500 μM TLCS, or DMSO plus 500 μM TLCS plus 1 μM of the CRAC inhibitor Compound I. Store-operated Ca^2+ entry (SOCE) is quantified in each treatment.

Sequence of Orai1/STIM1 channels (Q96D31 whole entry): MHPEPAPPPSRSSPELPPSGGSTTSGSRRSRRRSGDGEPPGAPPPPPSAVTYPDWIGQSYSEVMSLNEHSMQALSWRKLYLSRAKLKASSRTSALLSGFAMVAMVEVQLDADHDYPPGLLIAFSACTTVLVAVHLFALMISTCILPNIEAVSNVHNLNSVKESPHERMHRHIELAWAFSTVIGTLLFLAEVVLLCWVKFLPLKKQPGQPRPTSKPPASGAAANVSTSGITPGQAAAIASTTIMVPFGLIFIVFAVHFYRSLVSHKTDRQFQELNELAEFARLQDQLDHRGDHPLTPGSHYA
Sequence of Orai1/STIM1 channels (Q13586 23-685 partner): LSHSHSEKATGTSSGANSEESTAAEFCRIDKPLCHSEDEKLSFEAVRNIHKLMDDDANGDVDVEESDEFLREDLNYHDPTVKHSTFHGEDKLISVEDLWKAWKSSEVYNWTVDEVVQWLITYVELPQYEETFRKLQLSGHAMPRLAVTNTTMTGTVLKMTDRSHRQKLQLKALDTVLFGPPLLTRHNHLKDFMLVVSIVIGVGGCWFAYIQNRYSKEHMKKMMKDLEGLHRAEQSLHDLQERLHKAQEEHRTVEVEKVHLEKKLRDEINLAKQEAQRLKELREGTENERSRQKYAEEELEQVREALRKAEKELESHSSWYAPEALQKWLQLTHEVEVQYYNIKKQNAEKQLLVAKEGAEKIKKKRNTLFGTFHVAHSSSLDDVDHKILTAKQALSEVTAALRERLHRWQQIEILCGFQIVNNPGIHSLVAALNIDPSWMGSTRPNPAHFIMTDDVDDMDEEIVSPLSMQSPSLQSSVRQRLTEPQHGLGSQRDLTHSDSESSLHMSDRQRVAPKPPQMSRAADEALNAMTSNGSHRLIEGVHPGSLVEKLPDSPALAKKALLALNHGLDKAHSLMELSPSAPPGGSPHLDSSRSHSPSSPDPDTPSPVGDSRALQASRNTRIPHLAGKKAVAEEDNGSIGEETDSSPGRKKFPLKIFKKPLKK
Sequence of Orai2/STIM1 channels (Q96SN7 whole entry): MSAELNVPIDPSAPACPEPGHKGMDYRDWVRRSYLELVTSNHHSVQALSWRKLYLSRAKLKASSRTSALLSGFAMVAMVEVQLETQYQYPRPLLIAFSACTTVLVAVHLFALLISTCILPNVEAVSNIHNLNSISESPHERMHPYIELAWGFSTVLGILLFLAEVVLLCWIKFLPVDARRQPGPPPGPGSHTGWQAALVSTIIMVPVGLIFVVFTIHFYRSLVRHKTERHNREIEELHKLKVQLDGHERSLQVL
Sequence of Orai2/STIM1 channels (Q13586 23-685 partner): as the sequence (Q13586 23-685 partner) above

## Cc1nc2cc(C)c(-c3cnc(NC(=O)c4c(F)ccc(F)c4F)s3)cc2o1 [Compound II, N-(5-(2,5-dimethylbenzo[d]oxazol-6-yl)thiazol-2-yl)-2,3,6-trifluorobenzamide]
Mouse Acinar cells
  effect on Amylase release: mimicked EGTA

## O=C(Nc1ccn(Cc2ccc(O)cc2C(F)(F)F)n1)c1c(F)cccc1F [GSK-7975A, 2,6-Difluoro-N-(1-(4-hydroxy-2-(trifluoromethyl)benzyl)-1H-pyrazol-3-yl)benzamide, reference compound]
Mouse Acinar cells
  effect on Amylase release: mimicked EGTA
Mouse PACs [1]
  activity at 0.7 µM: 50%
Mouse PACs [2]
  Calcium re-uptake, % of the control: about 30%
[3]; TLCS plus 10 μM GSK-7975A, TLCS alone about 45%, no TLCS about 10%
  percent necrosis: about 23%
Orai2/STIM1 channels
  IC50: 1.45 µM
[4]
  total histopathology score: substantially reduces
Orai1/STIM1 channels
  IC50: 0.398 µM
Human PACs
  percent necrosis: about 30%

## Cc1cccc(F)c1C(=O)Nc1cnc(-c2cc3c(cc2Cl)OC(F)(F)O3)cn1 [Compound I, N-(5-(6-chloro-2,2-difluorobenzo[d][1,3]dioxol-5-yl)pyrazin-2-yl)-2-fluoro-6-methylbenzamide]
Mouse Acinar cells
  effect on Amylase release: mimicked EGTA
[5]
  caerulein-induced serum amylase activity: significant and dose-dependent reductions
  caerulein-induced serum lipase activity: significant and dose-dependent reductions
Mouse PACs [1]
  block of reuptake: 100%
  activity at 0.7 µM: 50%
[6]
  Compound I levels in the pancreas: dose-proportional increase
Candid-1 JUNV
  JUNV virus production (foci): statistically significant, dose-dependent reduction
Th17 cells
  IL-17A production by Th17 cells: more severely affected
[7]
  caerulein-induced pathology in the mouse pancreas: significant and dose-dependent reductions
[8]; prophylactic: i.p. 30 min before the 1st caerulein injection
  reduction in caerulein-induced pathology in the pancreas: 26%
[8]; therapeutic: i.p. after the 3rd caerulein injection
  reduction in caerulein-induced pathology in the pancreas: 35%
Mouse PACs [2]
  Calcium re-uptake, % of the control: ~0%
Mouse PACs [9]
  reuptake of Calcium: do not demonstrate reuptake of Calcium
[3]; 500 μM TLCS plus 1 μM Compound I
  TLCS-induced necrosis (% PI uptake): inhibits
Mouse PACs [10]
  TLCS-induced Ca2+ entry: completely blocked
[11]
  release of multiple cytokines: potently inhibits
Orai2/STIM1 channels
  IC50: 0.895 µM
Orai1/STIM1 channels; Compound I versus GSK-7975A
  potency on Orai1-type CRAC channels compared to GSK-7975A: about 4 fold
Orai1/STIM1 channels
  IC50: 0.119 µM
Murine T cells
  Store-operated Ca2+ entry (SOCE): blocks SOCE stronger in differentiated Th17 cells
